Laboratory results published in patent US11014911B2, “CDK2 inhibitors” (Pfizer Inc., priority 2019, dated 2021).

Biological target: CDK2/Cyclin E1 full length (Homo sapiens (Human), UniProt P24941)
Assay: CDK2/Cyclin E1 full length mobility shift assay
Assay type: biochemical

Compound | Ki [nM]
O=C(Cc1ccc(F)cc1)Nc1cc([C@H]2CC[C@@H](OC(=O)NCC(F)F)C2)[nH]n1 [Example 248, (1R,3S)-3-(3-{[(4-fluorophenyl)acetyl]amino}-1H-pyrazol-5-yl)cyclopentyl (2,2-difluoroethyl)carbamate] | 2.41
COc1cc(CC(=O)Nc2cc([C@H]3CC[C@@H](OC(=O)NCC(F)(F)F)C3)[nH]n2)ccn1 [Example 255, (1R,3S)-3-(3-{[(2-methoxypyridin-4-yl)acetyl]amino}-1H-pyrazol-5-yl)cyclopentyl (2,2,2-trifluoroethyl)carbamate] | 1.69
COc1ccc(CC(=O)Nc2cc([C@H]3CC[C@@H](OC(=O)N4C[C@H](OC)[C@H]4C)C3)[nH]n2)cn1 [Example 620, (1R,3S)-3-(3-{[(6-methoxypyridin-3-yl)acetyl]amino}-1H-pyrazol-5-yl)cyclopentyl (2R,3S)-3-methoxy-2-methylazetidine-1-carboxylate] | 3.91
CCC1(NC(=O)O[C@@H]2CC[C@H](c3cc(NC(=O)Cc4ncc(C)o4)n[nH]3)C2)CC1 [Example 448, (1R,3S)-3-(3-{[(5-methyl-1,3-oxazol-2-yl)acetyl]amino}-1H-pyrazol-5-yl)cyclopentyl (1-ethylcyclopropyl)carbamate] | 0.29
COc1cc(CC(=O)Nc2cc([C@H]3CC[C@@H](OC(=O)NCC(F)F)C3)[nH]n2)ccn1 [Example 251, (1R,3S)-3-(3-{[(2-methoxypyridin-4-yl)acetyl]amino}-1H-pyrazol-5-yl)cyclopentyl (2,2-difluoroethyl)carbamate] | 1.83
CC[C@H](C)NC(=O)O[C@@H]1CC[C@H](c2cc(NC(=O)Cc3c(S(C)(=O)=O)c4ccccc4n3C)n[nH]2)C1 [Example 377, (1R,3S)-3-[3-({[1-methyl-3-(methylsulfonyl)-1H-indol-2-yl]acetyl}amino)-1H-pyrazol-5-yl]cyclopentyl (2S)-butan-2-ylcarbamate] | 1.14
COc1cnc(CC(=O)Nc2cc([C@H]3CC[C@@H](OC(=O)NC4(CC(F)(F)F)CC4)C3)[nH]n2)cn1 [Example 456, (1R,3S)-3-(3-{[(5-methoxypyrazin-2-yl)acetyl]amino}-1H-pyrazol-5-yl)cyclopentyl [1-2,2,2-trifluoroethyl)cyclopropyl] carbamate] | 0.38
COc1ccc(CC(=O)Nc2cc([C@@H]3CC[C@H](OC(=O)N[C@H]4CC[C@@H](O)CC4)C3)[nH]n2)cn1 [Example 553, (1S,3R)-3-(3-{[(6-methoxypyridin-3-yl)acetyl]amino}-1H-pyrazol-5-yl)cyclopentyl (cis-4-hydroxycyclohexyl)carbamate] | 0.41
CC1(NC(=O)O[C@@H]2CC[C@H](c3cc(NC(=O)Cc4ccccc4)n[nH]3)C2)CCOC1 (single isomer, unassigned) [Example 125] | 0.34
CCCNC(=O)O[C@@H]1CC[C@H](c2cc(NC(=O)Cc3ccccc3S(C)(=N)=O)n[nH]2)C1 (single isomer, unassigned) [Example 201] | 1.91
CC[C@H](C)NC(=O)O[C@@H]1CC[C@H](c2cc(NC(=O)Cc3cn(C(C)C)nn3)n[nH]2)C1 [Example 350, (1R,3S)-3-[3-({[1-(propan-2-yl)-1H-1,2,3-triazol-4-yl]acetyl}amino)-1H-pyrazol-5-yl]cyclopentyl (2S)-butan-2-ylcarbamate] | 3.45
COc1cc(CC(=O)Nc2cc([C@@H]3CC[C@H](OC(=O)NCC4CCOCC4)C3)[nH]n2)ccn1 [Example 512, (1S,3R)-3-(3-{[(2-methoxypyridin-4-yl)acetyl]amino}-1H-pyrazol-5-yl)cyclopentyl (tetrahydro-2H-pyran-4-ylmethyl)carbamate] | 3.2
COc1ccc(CC(=O)Nc2cc([C@H]3CC[C@@H](OC(=O)N4C[C@@H](O)[C@@H]4C)C3)[nH]n2)cn1 [Example 615, (1R,3S)-3-(3-{[(6-methoxypyridin-3-yl)acetyl]amino}-1H-pyrazol-5-yl)cyclopentyl (2S,3R)-3-hydroxy-2-methylazetidine-1-carboxylate] | 1.99
Cc1cnc(CC(=O)Nc2cc([C@H]3CC[C@@H](OC(=O)NC4(CC(F)(F)F)CC4)C3)[nH]n2)o1 [Example 454, (1R,3S)-3-(3-{[(5-methyl-1,3-oxazol-2-yl)acetyl]amino}-1H-pyrazol-5-yl)cyclopentyl[1-(2,2,2-trifluoroethyl)cyclopropyl]carbamate] | 0.48
Cc1cnc(CC(=O)Nc2cc([C@H]3CC[C@@H](OC(=O)NCCC(F)(F)F)C3)[nH]n2)cn1 [Example 220, (1R,3S)-3-(3-{[(5-methylpyrazin-2-yl)acetyl]amino}-1H-pyrazol-5-yl)cyclopentyl (3,3,3-trifluoropropyl)carbamate] | 3.26
COc1cnc(CC(=O)Nc2cc([C@H]3CC[C@@H](OC(=O)N[C@H](C)C4CC4)C3)[nH]n2)cn1 [Example 472, (1R,3S)-3-(3-{[(5-methoxypyrazin-2-yl)acetyl]amino}-1H-pyrazol-5-yl)cyclopentyl [(1R)-1-cyclopropylethyl]carbamate] | 1.17
CCNC(=O)O[C@@H]1CC[C@H](c2cc(NC(=O)Cc3cccc4scnc34)n[nH]2)C1 [Example 234, (1R,3S)-3-{3-[(1,3-benzothiazol-4-ylacetyl)amino]-1H-pyrazol-5-yl}cyclopentyl ethylcarbamate] | 4.11
COc1ccc(CC(=O)Nc2cc([C@@H]3CC[C@H](OC(=O)N[C@H]4CC[C@H](O)CC4)C3)[nH]n2)cn1 [Example 556, (1S,3R)-3-(3-{[(6-methoxypyridin-3-yl)acetyl]amino}-1H-pyrazol-5-yl)cyclopentyl (trans-4-hydroxycyclohexyl)carbamate] | 0.46
COC[C@H](C)NC(=O)O[C@@H]1CC[C@H](c2cc(NC(=O)Cc3cnc(OC)cn3)n[nH]2)C1 [Example 520, (1R,3S)-3-(3-{[(5-methoxypyrazin-2-yl)acetyl]amino}-1H-pyrazol-5-yl)cyclopentyl [(2S)-1-methoxypropan-2-yl]carbamate] | 2.88
CCC(O)CNC(=O)O[C@@H]1CC[C@H](c2cc(NC(=O)Cc3cc(F)cc(F)c3)n[nH]2)C1 (single isomer, unassigned) [Example 543] | 1.96
CC(C)NC(=O)O[C@@H]1CC[C@H](c2cc(NC(=O)C3COc4ccccc43)n[nH]2)C1 (single isomer, unassigned) [Example 57] | 3.54
CCC(CO)CNC(=O)O[C@@H]1CC[C@H](c2cc(NC(=O)Cc3cnc(C)o3)n[nH]2)C1 (single isomer, unassigned) [Example 527] | 2.63
CN1CC(CNC(=O)O[C@H]2CC[C@@H](c3cc(NC(=O)Cc4cc(F)cc(F)c4)n[nH]3)C2)OCC1=O (single isomer, unassigned) [Example 583] | 2.71
COc1cnc(CC(=O)Nc2cc([C@H]3CC[C@@H](OC(=O)NCCC(F)(F)F)C3)[nH]n2)s1 [Example 223, (1R,3S)-3-(3-{[(5-methoxy-1,3-thiazol-2-yl)acetyl]amino}-1H-pyrazol-5-yl)cyclopentyl (3,3,3-trifluoropropyl)carbamate] | 2.33
C[C@H]1CCN1C(=O)O[C@@H]1CC[C@H](c2cc(NC(=O)Cc3cnn(C)c3)n[nH]2)C1 [Example 588, (1R,3S)-3-(3-{[(1-methyl-1H-pyrazol-4-yl)acetyl]amino}-1H-pyrazol-5-yl)cyclopentyl (2S)-2-methylazetidine-1-carboxylate] | 0.75

Further lines, results first:

Ki [nM] | Compound
2.58 | CNC(=O)O[C@@H]1CC[C@H](c2cc(NC(=O)Cc3ccc(OC)nc3)n[nH]2)C1 [Example 256, (1R,3S)-3-(3-{[(6-methoxypyridin-3-yl)acetyl]amino}-1H-pyrazol-5-yl)cyclopentyl methylcarbamate]
0.84 | CC[C@H](C)NC(=O)O[C@@H]1CC[C@H](c2cc(NC(=O)Cc3ccccc3S(C)(=N)=O)n[nH]2)C1 (single isomer, unassigned) [Example 369]
0.53 | CC(C)(C)NC(=O)O[C@@H]1CC[C@H](c2cc(NC(=O)Cc3cnn(CC(F)(F)F)n3)n[nH]2)C1 [Example 318, (1R,3S)-3-[3-({[2-(2,2,2-trifluoroethyl)-2H-1,2,3-triazol-4-yl]acetyl}amino)-1H-pyrazol-5-yl]cyclopentyl tert-butylcarbamate]
1.06 | COc1ccc(CC(=O)Nc2cc([C@H]3CC[C@@H](OC(=O)N4CCC4C)C3)[nH]n2)cn1 (single isomer, unassigned) [Example 152]
1.09 | CC(C)(C)NC(=O)O[C@@H]1CC[C@H](c2cc(NC(=O)Cc3coc(C4CC4)n3)n[nH]2)C1 [Example 306, (1R,3S)-3-(3-{[(2-cyclopropyl-1,3-oxazol-4-yl)acetyl]amino}-1H-pyrazol-5-yl)cyclopentyl tert-butylcarbamate]
1.68 | Cc1cc(CC(=O)Nc2cc([C@H]3CC[C@@H](OC(=O)NC(C)C)C3)[nH]n2)no1 [Example 269, (1R,3S)-3-(3-{[(5-methyl-1,2-oxazol-3-yl)acetyl]amino}-1H-pyrazol-5-yl)cyclopentyl propan-2-ylcarbamate]
1.55 | COc1nn(C)cc1CC(=O)Nc1cc([C@H]2CC[C@@H](OC(=O)NC(C)(C)C)C2)[nH]n1 [Example 309, (1R,3S)-3-(3-{[(3-methoxy-1-methyl-1H-pyrazol-4-yl)acetyl]amino}-1H-pyrazol-5-yl)cyclopentyl tert-butylcarbamate]
0.41 | CCCNC(=O)O[C@H]1CC[C@@H](c2cc(NC(=O)Cc3cc(OC)ncc3O)n[nH]2)C1 [Example 193, (1S,3R)-3-(3-{[(5-hydroxy-2-methoxypyridin-4-yl)acetyl]amino}-1H-pyrazol-5-yl)cyclopentyl propylcarbamate]
3.11 | C[C@H](F)[C@H](C)NC(=O)O[C@@H]1CC[C@H](c2cc(NC(=O)Cc3cnn(C)c3)n[nH]2)C1 (single isomer, unassigned) [Example 381, (1R,3S)-3-(3-{[(1-methyl-1H-pyrazol-4-yl)acetyl]amino}-1H-pyrazol-5-yl)cyclopentyl [(2S*,3S*)-3-fluorobutan-2-yl]carbamate]
0.65 | CC(C)(C)NC(=O)O[C@@H]1CC[C@H](c2cc(NC(=O)Cc3ccc(F)cn3)n[nH]2)C1 [Example 300, (1R,3S)-3-(3-{[(5-fluoropyridin-2-yl)acetyl]amino}-1H-pyrazol-5-yl)cyclopentyl tert-butylcarbamate]
0.29 | Cn1ncc(CC(=O)Nc2cc([C@H]3CC[C@@H](OC(=O)NC(C)(C)C)C3)[nH]n2)n1 [Example 110]
